# Measurements reported in ChEMBL document CHEMBL5528048, “Discovery of Novel Potent and Fast BTK PROTACs for the Treatment of Osteoclasts-Related Inflammatory Diseases” (J Med Chem, 2024).
# The source made the active and inactive calls. The calls are words filed in the database; no cut-off is given here.
# Legend:
# [1] = target: T1, Protein cereblon/Tyrosine-protein kinase BTK (Homo sapiens, UniProt Q06187+Q96SW2); test: PROTAC activity at BTK/CRBN in human MINO cells assessed as BTK protein degradation at 100 nM measured after 24 hrs by Western blotting analysis relative to control; type: cell-based
# Target sequence in this assay (Q06187 2-659 limits assumed): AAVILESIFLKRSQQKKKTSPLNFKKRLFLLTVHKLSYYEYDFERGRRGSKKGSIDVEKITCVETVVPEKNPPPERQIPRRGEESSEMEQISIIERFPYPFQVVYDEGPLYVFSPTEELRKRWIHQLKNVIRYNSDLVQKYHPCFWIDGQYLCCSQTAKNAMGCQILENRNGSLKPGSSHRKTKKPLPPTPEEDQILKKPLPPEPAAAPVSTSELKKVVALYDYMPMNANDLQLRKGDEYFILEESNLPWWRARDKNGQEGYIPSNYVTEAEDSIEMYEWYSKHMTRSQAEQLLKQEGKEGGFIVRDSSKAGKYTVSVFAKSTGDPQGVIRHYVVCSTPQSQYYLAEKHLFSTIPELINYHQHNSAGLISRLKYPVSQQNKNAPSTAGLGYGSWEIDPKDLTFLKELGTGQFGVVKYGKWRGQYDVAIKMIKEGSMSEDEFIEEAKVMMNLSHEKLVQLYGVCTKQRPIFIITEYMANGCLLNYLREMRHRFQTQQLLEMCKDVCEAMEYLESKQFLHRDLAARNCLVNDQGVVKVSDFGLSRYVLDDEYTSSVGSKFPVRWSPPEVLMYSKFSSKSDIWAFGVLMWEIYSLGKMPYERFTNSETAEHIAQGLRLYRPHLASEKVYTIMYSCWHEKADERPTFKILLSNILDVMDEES
# Target sequence in this assay (Q96SW2 whole entry partner): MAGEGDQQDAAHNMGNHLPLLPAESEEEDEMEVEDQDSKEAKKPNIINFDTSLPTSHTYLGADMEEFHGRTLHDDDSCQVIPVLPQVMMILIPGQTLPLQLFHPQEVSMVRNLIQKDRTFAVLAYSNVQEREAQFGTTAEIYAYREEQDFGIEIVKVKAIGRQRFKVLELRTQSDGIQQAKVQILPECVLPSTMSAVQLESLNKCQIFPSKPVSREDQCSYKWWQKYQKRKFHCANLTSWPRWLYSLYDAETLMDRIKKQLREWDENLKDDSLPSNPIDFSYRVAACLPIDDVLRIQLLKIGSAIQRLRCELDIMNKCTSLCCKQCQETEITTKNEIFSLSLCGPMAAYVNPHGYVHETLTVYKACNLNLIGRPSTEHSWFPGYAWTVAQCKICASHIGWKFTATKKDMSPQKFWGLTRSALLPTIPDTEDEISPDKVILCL
# [2] = target: T1, Protein cereblon/Tyrosine-protein kinase BTK; test: PROTAC activity at BTK/CRBN in human MINO cells assessed as BTK protein degradation at 20 nM measured after 24 hrs by Western blotting analysis relative to control; type: cell-based
# Target sequence in this assay (Q06187 2-659 limits assumed): as the sequence (Q06187 2-659 limits assumed) above
# Target sequence in this assay (Q96SW2 whole entry partner): as the sequence (Q96SW2 whole entry partner) above
# [3] = target: T1, Protein cereblon/Tyrosine-protein kinase BTK; test: PROTAC activity at BTK/CRBN in human MINO cells assessed as BTK protein degradation at 20 nM by Western blotting analysis; type: cell-based; conditions: time lower 2.0 hrs, time upper […], TDE = time-dependent effect
# Target sequence in this assay (Q06187 2-659 limits assumed): as the sequence (Q06187 2-659 limits assumed) above
# Target sequence in this assay (Q96SW2 whole entry partner): as the sequence (Q96SW2 whole entry partner) above
# [4] = target: T1, Protein cereblon/Tyrosine-protein kinase BTK; test: PROTAC activity at BTK/CRBN in human MINO cells assessed as BTK protein degradation at 20 nM measured after 4 to 8 hrs by Western blotting analysis; type: cell-based; conditions: time 4-8 hrs
# Target sequence in this assay (Q06187 2-659 limits assumed): as the sequence (Q06187 2-659 limits assumed) above
# Target sequence in this assay (Q96SW2 whole entry partner): as the sequence (Q96SW2 whole entry partner) above
# [5] = target: T1, Protein cereblon/Tyrosine-protein kinase BTK; test: PROTAC activity at BTK/CRBN in human MINO cells assessed as BTK protein degradation by measuring onset time activity at 20 nM by Western blotting analysis; type: cell-based
# Target sequence in this assay (Q06187 2-659 limits assumed): as the sequence (Q06187 2-659 limits assumed) above
# Target sequence in this assay (Q96SW2 whole entry partner): as the sequence (Q96SW2 whole entry partner) above
# [6] = target: T1, Protein cereblon/Tyrosine-protein kinase BTK; test: PROTAC activity at BTK/CRBN in human MINO cells assessed as BTK protein degradation half life at 20 nM by Western blotting analysis; type: cell-based
# Target sequence in this assay (Q06187 2-659 limits assumed): as the sequence (Q06187 2-659 limits assumed) above
# Target sequence in this assay (Q96SW2 whole entry partner): as the sequence (Q96SW2 whole entry partner) above
# [7] = target: T1, Protein cereblon/Tyrosine-protein kinase BTK; test: PROTAC activity at BTK/CRBN in human MINO cells assessed as BTK protein degradation measured for 4 hrs by Western blotting analysis; type: cell-based
# Target sequence in this assay (Q06187 whole entry): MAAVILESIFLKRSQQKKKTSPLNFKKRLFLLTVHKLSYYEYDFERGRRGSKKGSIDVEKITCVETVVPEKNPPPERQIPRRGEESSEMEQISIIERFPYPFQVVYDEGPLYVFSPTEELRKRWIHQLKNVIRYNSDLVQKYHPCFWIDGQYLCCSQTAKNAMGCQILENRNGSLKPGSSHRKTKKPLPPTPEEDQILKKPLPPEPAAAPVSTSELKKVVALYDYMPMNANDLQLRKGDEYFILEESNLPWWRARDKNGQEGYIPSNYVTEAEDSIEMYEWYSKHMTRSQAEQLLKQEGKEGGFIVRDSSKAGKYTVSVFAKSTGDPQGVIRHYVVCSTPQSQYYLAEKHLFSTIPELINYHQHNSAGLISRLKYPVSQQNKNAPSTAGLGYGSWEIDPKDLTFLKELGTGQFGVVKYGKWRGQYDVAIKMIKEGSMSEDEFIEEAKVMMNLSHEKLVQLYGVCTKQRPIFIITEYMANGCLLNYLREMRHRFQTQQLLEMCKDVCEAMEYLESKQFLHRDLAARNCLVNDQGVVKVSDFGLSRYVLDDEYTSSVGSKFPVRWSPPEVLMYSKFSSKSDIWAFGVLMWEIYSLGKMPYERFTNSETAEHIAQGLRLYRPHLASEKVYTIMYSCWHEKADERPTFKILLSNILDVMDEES
# Target sequence in this assay (Q96SW2 whole entry): as the sequence (Q96SW2 whole entry partner) above
# [8] = AUC (0 to t) in Sprague-Dawley rat at 4 mg/kg, ip measured upto 48 hrs; type: ADME, organism-based; conditions: in vivo
# [9] = AUC (0 to infinity) in Sprague-Dawley rat at 4 mg/kg, ip measured upto 48 hrs; type: ADME, organism-based; conditions: in vivo
# [10] = Cmax in Sprague-Dawley rat at 4 mg/kg, ip measured upto 48 hrs; type: ADME, organism-based; conditions: in vivo
# [11] = target: T1, Protein cereblon/Tyrosine-protein kinase BTK; test: PROTAC activity at BTK/CRBN in human MINO cells assessed as BTK protein degradation at 20 nM measured after 48 hrs by Western blotting analysis; type: cell-based
# [12] = target: T1, Protein cereblon/Tyrosine-protein kinase BTK; test: PROTAC activity at BTK/CRBN in human MINO cells assessed as BTK protein degradation measured for 24 hrs by Western blotting analysis; type: cell-based
# Target sequence in this assay (Q06187 whole entry): as the sequence (Q06187 whole entry) above
# Target sequence in this assay (Q96SW2 whole entry): as the sequence (Q96SW2 whole entry partner) above
# [13] = target: T2, Tyrosine-protein kinase BTK (Homo sapiens, UniProt Q06187); test: Inhibition of BTK (unknown origin) measured after 60 mins incubation by microtiter-plate reader
# [14] = target: T2, Tyrosine-protein kinase BTK; test: Binding affinity to BTK (unknown origin) assessed as inhibition constant measured after 60 mins incubation by microtiter-plate reader
# Protein cereblon = Protein cereblon (Homo sapiens, UniProt Q96SW2); test: Inhibition of CRBN (unknown origin) measured after 60 mins incubation by BMG reader
# [15] = target: T1, Protein cereblon/Tyrosine-protein kinase BTK; test: Binding affinity to BTK/CRBN (unknown origin) assessed as ternary complex formation measured after 60 mins incubation by HTRF assay
# Target sequence in this assay (Q06187 whole entry): as the sequence (Q06187 whole entry) above
# Target sequence in this assay (Q96SW2 whole entry): as the sequence (Q96SW2 whole entry partner) above
# [16] = target: T1, Protein cereblon/Tyrosine-protein kinase BTK; test: Binding affinity to BTK/CRBN (unknown origin) assessed as ternary complex formation by measuring peak HTRF ratio at wavelength 665/620 nm measured after 60 mins incubation by HTRF assay
# [17] = target: T1, Protein cereblon/Tyrosine-protein kinase BTK; test: Binding affinity to BTK/CRBN (unknown origin) assessed as ternary complex formation by measuring peak concentration measured after 60 mins incubation by HTRF assay
# T2 sequence (Q06187 whole entry): as the sequence (Q06187 whole entry) above
# Chain of Protein cereblon (Q96SW2 whole entry): as the sequence (Q96SW2 whole entry partner) above
Activity [1],Activity [2],Compound,other results
< 10%,–,O=C1CCC(N2C(=O)c3ccc(N4CC(CN5CCN(c6ccc(Nc7ncc(F)c(N8CCC[C@@H](N9CCOC9=O)C8)n7)cc6)CC5)C4)cc3C2=O)C(=O)N1 (some centres undefined),–
< 10%,–,O=C1CCC(N2C(=O)c3ccc(N4CC(CN5CCN(c6ccc(Nc7ncc(F)c(N8CCC(CO)CC8)n7)cc6)CC5)C4)cc3C2=O)C(=O)N1 (centres undefined),–
< 10%,–,CN1CCN([C@@H]2CCCN(c3nc(Nc4ccc(N5CCN(CC6CN(c7ccc8c(c7)C(=O)N(C7CCC(=O)NC7=O)C8=O)C6)CC5)cc4)ncc3F)C2)C1=O (some centres undefined),–
99%,78%,Cc1cc(-c2nc(Nc3ccn(C4CN(CC5CCN(c6ccc7c(c6)C(=O)N(C6CCC(=O)NC6=O)C7=O)CC5)C4)n3)ncc2F)ccc1CNC(=O)c1noc(C(C)(C)C)n1 (centres undefined),–
99%,99%,Cc1cc(-c2nc(Nc3cnn(C4CN(CC5CCN(c6ccc7c(c6)C(=O)N(C6CCC(=O)NC6=O)C7=O)CC5)C4)c3)ncc2F)ccc1CNC(=O)c1cn(C(C)(C)C)nn1 (centres undefined),Activity [3]: Tde; Activity [4]: Active; TIME [5]: < 0.5 h; T1/2 [6]: 0.71 h; DC50 [7]: 2.49 nM
63%,0%,Cc1cc(-c2nc(Nc3ccn(C4CCN(CC5CCN(c6ccc7c(c6)C(=O)N(C6CCC(=O)NC6=O)C7=O)CC5)CC4)n3)ncc2F)ccc1CNC(=O)c1noc(C2CC2)n1 (centres undefined),–
< 10%,–,O=C1CCC(N2C(=O)c3ccc(N4CC(CN5CCN(c6ccc(Nc7ncc(F)c(N8CCC(CO)CC8)n7)cn6)CC5)C4)cc3C2=O)C(=O)N1 (centres undefined),–
95%,75%,Cc1cc(-c2nc(Nc3ccn(C4CN(CC5CCN(c6ccc7c(c6)C(=O)N(C6CCC(=O)NC6=O)C7=O)CC5)C4)n3)ncc2F)ccc1CNC(=O)c1cnc(C(C)(C)C)s1 (centres undefined),–
20%,–,O=C1CCC(N2C(=O)c3ccc(N4CCC(CN5CCN(c6ccc(Nc7ncc(F)c(N8CCC(CO)CC8)n7)cn6)CC5)CC4)cc3C2=O)C(=O)N1 (centres undefined),–
48%,–,Cc1cc(-c2nc(Nc3cnn(C4CCN(CC5CCN(c6ncc(-c7ccc(=O)[nH]n7)cc6F)CC5)CC4)c3)ncc2F)ccc1CNC(=O)c1cn(C(C)(C)C)nn1,–
–,–,C=CC(=O)N1CCC[C@@H](n2nc(-c3ccc(Oc4ccccc4)cc3)c3c(N)ncnc32)C1 [IBRUTINIB],AUC(0-t) at 48 h [8]: 11200 ng·h/mL; AUC(0-inf) [9]: 11700 ng·h/mL; Cmax [10]: 3460 ng/mL
57%,–,Cc1cc(-c2nc(Nc3cnn(C4CCN(CC5CCN(c6ccc(C7CCC(=O)NC7=O)cc6F)CC5)CC4)c3)ncc2F)ccc1CNC(=O)c1cn(C(C)(C)C)nn1 (centres undefined),–
95%,80%,Cc1cc(-c2nc(Nc3cnn(C4CCN(CC5CCN(c6ccc7c(c6)C(=O)N(C6CCC(=O)NC6=O)C7=O)CC5)CC4)c3)ncc2F)ccc1CNC(=O)N1CC(OC(C)C)C1 (centres undefined),–
70%,–,CC#CC(=O)Nc1cccc(Nc2nc(Nc3ccc(N4CCN(C5CN(c6ccc7c(c6)C(=O)N(C6CCC(=O)NC6=O)C7=O)C5)CC4)cc3)ncc2F)c1 (centres undefined),–
49%,0%,Cc1cc(-c2nc(Nc3cnn(C4CCN(CC5CCN(c6ccc7c(c6)C(=O)N(C6CCC(=O)NC6=O)C7=O)CC5)CC4)c3)ncc2F)ccc1CNC(=O)c1ccc(C(C)(C)C)cc1 (centres undefined),–
25%,–,O=C1CCC(N2C(=O)c3ccc(N4CCC(CN5CCN(c6ccc(Nc7ncc(F)c(N8CCC(CO)CC8)n7)cc6)CC5)CC4)cc3C2=O)C(=O)N1 (centres undefined),–
39%,–,O=C1CCC(N2C(=O)c3ccc(N4CCC(CN5CCN(c6ccc(Nc7ncc(F)c(N8CCC[C@@H](N9CCOC9=O)C8)n7)cc6)CC5)CC4)cc3C2=O)C(=O)N1 (some centres undefined),–
99%,96%,NC(=O)c1ncc(N2CCCCC2)nc1Nc1ccc(C2CCN(C[C@@H]3CCN(c4ccc5c(c4)C(=O)N(C4CCC(=O)NC4=O)C5=O)C3)CC2)cc1 (some centres undefined),TIME [5]: < 1 h; T1/2 [6]: 1.25 h; DC50 [7]: 4.86 nM
32%,–,Cc1cc(-c2nc(Nc3cnn(C4CCN(C(=O)CCC(=O)N[C@@H](C)C(=O)N[C@H]5CCC(=O)NC5=O)CC4)c3)ncc2F)ccc1CNC(=O)c1cn(C(C)(C)C)nn1,–

Activity [1],Activity [2],Compound,other results
35%,–,O=C1CCC(N2C(=O)c3ccc(N4CCC(CN5CCC(C#Cc6ccc(Nc7ncc(F)c(N8CCC(CO)CC8)n7)cn6)CC5)CC4)cc3C2=O)C(=O)N1 (centres undefined),–
26%,–,O=C(/C=C/C(F)(F)F)Nc1cccc(Nc2nc(Nc3ccc(N4CCN(C5CN(c6ccc7c(c6)C(=O)N(C6CCC(=O)NC6=O)C7=O)C5)CC4)cc3)ncc2F)c1 (centres undefined),–
99%,96%,Cc1cc(-c2nc(Nc3ccn(C4CN(CC5CCN(c6ccc7c(c6)C(=O)N(C6CCC(=O)NC6=O)C7=O)CC5)C4)n3)ncc2F)ccc1CNC(=O)c1nc(C(C)(C)C)no1 (centres undefined),–
30%,–,CN1CCN([C@@H]2CCCN(c3nc(Nc4ccc(N5CCN(CC6CCN(c7ccc8c(c7)C(=O)N(C7CCC(=O)NC7=O)C8=O)CC6)CC5)cc4)ncc3F)C2)C1=O (some centres undefined),–
11%,–,Cn1cc(Nc2nc(Nc3ccc(N4CCN(CC5CN(c6ccc7c(c6)C(=O)N(C6CCC(=O)NC6=O)C7=O)C5)CC4)cc3)ncc2F)cn1 (centres undefined),–
29%,0%,Cc1cc(-c2nc(Nc3cnn(C4CN(CC5CCN(c6ccc7c(c6)C(=O)N(C6CCC(=O)NC6=O)C7=O)CC5)C4)c3)ncc2F)ccc1CNC(=O)c1ccc(C(C)(C)C)cc1 (centres undefined),–
97%,92%,Cc1cc(-c2nc(Nc3ccn(C4CN(CC5CCN(c6ccc7c(c6)C(=O)N(C6CCC(=O)NC6=O)C7=O)CC5)C4)n3)ncc2F)ccc1CNC(=O)c1cn(C2CC2)nn1 (centres undefined),–
16%,0%,Cc1cc(-c2nc(Nc3ccn(C4CCN(CC5CCN(c6ccc7c(c6)C(=O)N(C6CCC(=O)NC6=O)C7=O)CC5)CC4)n3)ncc2F)ccc1CNC(=O)c1cnc(C(C)(C)C)s1 (centres undefined),–
99%,99%,Cc1cc(-c2nc(Nc3ccn(C4CCN(CC5CCN(c6ccc7c(c6)C(=O)N(C6CCC(=O)NC6=O)C7=O)CC5)CC4)n3)ncc2F)ccc1CNC(=O)c1nc(C(C)(C)C)no1 (centres undefined),–
28%,–,C=CC(=O)Nc1cccc(Nc2nc(Nc3ccc(N4CCN(CC5CCN(c6ccc7c(c6)C(=O)N(C6CCC(=O)NC6=O)C7=O)CC5)CC4)cc3)ncc2F)c1 (centres undefined),–
54%,–,C#CC(=O)Nc1cccc(Nc2nc(Nc3ccc(N4CCN(C5CN(c6ccc7c(c6)C(=O)N(C6CCC(=O)NC6=O)C7=O)C5)CC4)cc3)ncc2F)c1 (centres undefined),–
< 10%,–,C=CC(=O)Nc1cccc(Nc2nc(Nc3ccc(N4CCN(C5CN(c6ccc7c(c6)C(=O)N(C6CCC(=O)NC6=O)C7=O)C5)CC4)cc3)ncc2F)c1 (centres undefined),–
< 10%,–,O=C1CCC(N2C(=O)c3ccc(N4CCC(N5CCN(c6ccc(Nc7ncc(F)c(N8CCC(CO)CC8)n7)cc6)CC5)CC4)cc3C2=O)C(=O)N1 (centres undefined),–
99%,98%,Cc1cc(-c2nc(Nc3ccn(C4CCN(CC5CCN(c6ccc7c(c6)C(=O)N(C6CCC(=O)NC6=O)C7=O)CC5)CC4)n3)ncc2F)ccc1CNC(=O)c1noc(C(C)(C)C)n1 (centres undefined),Activity [3]: Tde; Activity [4]: Active; T1/2 [6]: 1.1 h; DC50 [7]: 10.3 nM
21%,99%,Cc1cc(-c2nc(Nc3ccn(C4CCN(CC5CCN(c6ccc7c(c6)C(=O)N(C6CCC(=O)NC6=O)C7=O)CC5)CC4)n3)ncc2F)ccc1CNC(=O)c1cn(C2CC2)nn1 (centres undefined),Activity [3]: Tde
< 10%,–,O=C1CCC(N2C(=O)c3ccc(N4CC(CN5CCN(c6ccc(Nc7ncc(F)c(-n8cccn8)n7)cc6)CC5)C4)cc3C2=O)C(=O)N1 (centres undefined),–
20%,–,O=C1CCC(N2C(=O)c3ccc(N4CC(CN5CCC(C#Cc6ccc(Nc7ncc(F)c(N8CCC(CO)CC8)n7)cn6)CC5)C4)cc3C2=O)C(=O)N1 (centres undefined),–
99%,95%,Nc1ncnc2c1c(-c1ccc(Oc3ccccc3)cc1)nn2C1CCN(C(=O)CN2CCN(CC3CN(c4ccc5c(c4)C(=O)N(C4CCC(=O)NC4=O)C5=O)C3)CC2)CC1 (centres undefined),Activity [3]: Tde; Activity [11]: Active; TIME [5]: < 1 h; T1/2 [6]: 1.51 h; DC50 [7]: 18.9 nM; DC50 [12]: 7.07 nM; IC50 [13]: 95.5 nM; Ki [14]: 50.3 nM; IC50 (Protein cereblon): 285 nM; EC50 [15]: 2.74 nM; Ratio [16]: 13.1; Activity [17]: 37 nM
